Reference: patent US10273229B2, “N-substituted 4-aminoquinazoline derivatives and methods of use” (priority 2014, dated 2019)

Assays:
CYP3A4 [1] = biological target: T1, CYP3A4 (Homo sapiens, UniProt P08684); settings: in words; for CYP3A4 inhibitor potency after preincubation with the test compound, compared with lapatinib: time dependent arm
human ErbB2 [2] = biological target: T2, human ErbB2 (Homo sapiens, UniProt P04626); experiment: ErbB2 kinase assay, FRET peptide substrate (Example 3); type: biochemical; settings: ErbB2 or EGFR (either kinase); in words
Protocol: Kinase assays were performed using standard protocols known to those skilled in the art. In brief, kinase, peptide substrate labeled with both coumarin (donor fluorophore) and fluorescein (acceptor fluorophore), ATP, and test compound are incubated together in a kinase reaction buffer. Typically, the reaction was stopped by development reagent (protease) with certain dilution factor after 2 hours. The plate was analyzed in Perkin Elmer Envision by FRET mode. The high ratio of coumarin/fluorescein represents 0% phosphorylation rate while low ratio of coumarin/fluorescein represents 100% phosphorylation rate.

human ErbB2 [3] = biological target: T2, human ErbB2; experiment: ErbB2 kinase assay at RBC, 33P-ATP filter binding (Example 5); type: biochemical; settings: in words
Protocol: The synthesis and biochemical testing of these compounds was completed using alternate CROs as a control for characterizing compounds.
(§1) Kinase assays were performed at RBC using standard protocols known to those skilled in the art. In brief, kinase, any required cofactors, substrate in DMSO, and kinase reaction mixture (by acoustic technology; Echo 550; nanoliter range) were incubated for 20 minutes at room temperature. 33P-ATP was added to initiate the reaction, which was incubated for 2 hours at room temperature.

EGFR [4] = biological target: T3, EGFR (Homo sapiens, UniProt P00533); experiment: EGFR kinase assay at RBC, 33P-ATP filter binding (Example 5); type: biochemical; settings: in words
Protocol: as §1, with “The synthesis and biochemical testing of these compounds was completed using alternate CROs as a control for characterizing compounds. Kinase” for “Kinase”

CYP3A4 [5] = biological target: T1, CYP3A4
BT-474 cells [6] = experiment: Cytotoxicity against BT-474 cells, CellTiter 96 (Example 4); type: cell-based, human; settings: in words
Protocol: (§2) All of the test compounds were kept between 4° C. to 8° C. in solid form or as solution in DMSO. The cell lines BT-474 and NCI-N87 were obtained from the ATCC. The cell lines were maintained in liquid nitrogen. Cell lines were prepared by thawing a 1 mL vial of the cell line and splitting it into two T-75 flasks with 10 mL of the appropriate media. BT-474 and NCI-N87 both utilized RPMI 1640 with varying glucose content (1 g/L for BT-474 and 4.5 g/L for NCI-N87). The cell lines were trypsinized and split into two T-150 flasks each time the cell lines reached 70-90% confluency. When there were at least two confluent T-150 flasks of cell lines available, cultures were trypsinized and the cells enumerated using a hemocytometer and added to a 96-well microtiter plate at 1.5×10^5 cells/mL. The 96-well plates were then incubated at 37° C. with 5% CO2 for 24 hours to allow enough time for the cells to adhere to the wells. […] Lapatinib and media without the test compounds were used as controls. All 96-well plates were incubated at 37° C. with 5% CO2 for 3 days with plates containing BT-474 and for 6 days with plates containing NCI-N87. […] After recovery, cell viability was determined using the CellTiter 96® Aqueous One Solution Cell Proliferation Assay kit (Promega). The optical density (OD) was read using a SPECTRAMAX® M5 Microplate Reader (Molecular Devices) at 490 nm. […]

NCI-N87 cells = experiment: Cytotoxicity against NCI-N87 cells, CellTiter 96 (Example 4); type: cell-based; settings: in words
Protocol: as §2

ErbB4 = ErbB4 (Homo sapiens, UniProt Q15303); experiment: ErbB4 kinase inhibition (Table 1); type: biochemical
Syk = Syk (Homo sapiens, UniProt P43405); experiment: Syk kinase inhibition (Table 1)
EGFR [7] = biological target: T3, EGFR; experiment: EGFR kinase inhibition (Table 1)
BT-474 cells [8] = experiment: Cytotoxicity against BT-474 cells at RBC, Cell Titer-Glo 2.0 (Example 6); type: cell-based, human; settings: in words
Protocol: All of the test compounds were kept between 4° C. to 8° C. in solid form or as solution in DMSO. The cell line BT-474 was obtained from the ATCC. Test compounds were dissolved in DMSO (10 mM stock). Cell Titer-Glo® 2.0 Luminescent cell viability assay reagent was obtained from Promega. BT474 human breast cancer cell line was grown in Hybri-care medium supplemented with 1.5 g/L sodium bicarbonate and 10% FBS. 100 μg/ml penicillin and 100 μg/ml streptomycin were added to all culture media. Cultures were maintained at 37° C. in a humidified atmosphere of 5% CO2 and 95% air. Test compounds in DMSO were added in a source plate. 25 nL of test compounds was delivered from the source plate to each well of the 384-well cell culture plates by Echo 550. 25 μl of culture medium containing 1000 cells for each cell line was added to the wells of the cell culture plates. […] The contents were mixed on an orbital shaker for 2 minutes and incubated at room temperature for 10 minutes to stabilize luminescent signal Luminescence was recorded by Envision 2104 Multilabel Reader (Perkin Elmer). The number of viable cells in culture was determined based on quantization of the ATP present in each culture well. The IC50 values were calculated and the IC50 curves were plotted using the GraphPad Prism 4 program based on a sigmoidal dose-response equation.

T2 sequence (P04626 23-1255): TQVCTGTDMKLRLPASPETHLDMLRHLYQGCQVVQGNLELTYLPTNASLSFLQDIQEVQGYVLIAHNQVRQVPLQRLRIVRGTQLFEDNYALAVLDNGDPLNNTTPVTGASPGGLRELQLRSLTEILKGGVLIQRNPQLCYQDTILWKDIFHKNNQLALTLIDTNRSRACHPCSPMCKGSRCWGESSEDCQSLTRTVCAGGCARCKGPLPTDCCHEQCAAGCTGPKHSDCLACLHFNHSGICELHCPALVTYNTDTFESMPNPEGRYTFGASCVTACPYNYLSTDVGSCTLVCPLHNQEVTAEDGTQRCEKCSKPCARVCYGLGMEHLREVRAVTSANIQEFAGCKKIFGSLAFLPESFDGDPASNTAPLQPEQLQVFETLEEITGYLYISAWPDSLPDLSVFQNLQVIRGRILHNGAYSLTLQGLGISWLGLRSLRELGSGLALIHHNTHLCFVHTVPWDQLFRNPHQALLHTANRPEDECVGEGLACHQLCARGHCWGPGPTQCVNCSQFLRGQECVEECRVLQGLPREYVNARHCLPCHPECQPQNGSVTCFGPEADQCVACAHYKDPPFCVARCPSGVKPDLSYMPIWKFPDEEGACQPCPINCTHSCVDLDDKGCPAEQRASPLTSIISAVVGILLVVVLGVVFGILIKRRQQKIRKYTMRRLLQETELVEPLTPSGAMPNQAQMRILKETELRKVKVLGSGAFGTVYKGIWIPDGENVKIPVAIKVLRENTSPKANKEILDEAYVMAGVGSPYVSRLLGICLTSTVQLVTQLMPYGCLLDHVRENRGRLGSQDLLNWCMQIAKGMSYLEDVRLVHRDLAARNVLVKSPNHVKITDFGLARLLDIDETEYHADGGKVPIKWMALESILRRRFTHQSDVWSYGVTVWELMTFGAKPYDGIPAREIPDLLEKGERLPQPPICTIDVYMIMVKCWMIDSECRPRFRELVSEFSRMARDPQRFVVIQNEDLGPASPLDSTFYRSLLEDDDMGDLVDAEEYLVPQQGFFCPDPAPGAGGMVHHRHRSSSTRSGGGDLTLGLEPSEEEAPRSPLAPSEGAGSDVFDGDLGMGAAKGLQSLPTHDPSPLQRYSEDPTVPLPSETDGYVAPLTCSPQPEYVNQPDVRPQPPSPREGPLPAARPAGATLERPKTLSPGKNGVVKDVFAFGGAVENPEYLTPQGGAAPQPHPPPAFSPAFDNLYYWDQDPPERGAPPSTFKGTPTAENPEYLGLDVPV
T1 sequence (P08684 whole entry): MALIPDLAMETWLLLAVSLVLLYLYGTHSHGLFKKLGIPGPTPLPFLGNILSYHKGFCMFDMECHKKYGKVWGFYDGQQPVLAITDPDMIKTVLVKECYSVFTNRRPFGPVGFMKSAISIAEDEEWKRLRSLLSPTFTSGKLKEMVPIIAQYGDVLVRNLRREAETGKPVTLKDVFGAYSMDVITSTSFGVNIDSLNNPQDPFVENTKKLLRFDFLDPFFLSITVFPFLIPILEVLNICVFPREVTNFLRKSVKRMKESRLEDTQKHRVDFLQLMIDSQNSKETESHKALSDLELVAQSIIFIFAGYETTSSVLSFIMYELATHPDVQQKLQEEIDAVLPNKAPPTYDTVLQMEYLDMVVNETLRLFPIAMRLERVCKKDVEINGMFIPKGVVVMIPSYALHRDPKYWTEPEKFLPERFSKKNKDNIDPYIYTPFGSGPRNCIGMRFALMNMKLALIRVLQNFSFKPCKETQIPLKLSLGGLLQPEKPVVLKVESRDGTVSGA
T3 sequence (P00533 25-1210): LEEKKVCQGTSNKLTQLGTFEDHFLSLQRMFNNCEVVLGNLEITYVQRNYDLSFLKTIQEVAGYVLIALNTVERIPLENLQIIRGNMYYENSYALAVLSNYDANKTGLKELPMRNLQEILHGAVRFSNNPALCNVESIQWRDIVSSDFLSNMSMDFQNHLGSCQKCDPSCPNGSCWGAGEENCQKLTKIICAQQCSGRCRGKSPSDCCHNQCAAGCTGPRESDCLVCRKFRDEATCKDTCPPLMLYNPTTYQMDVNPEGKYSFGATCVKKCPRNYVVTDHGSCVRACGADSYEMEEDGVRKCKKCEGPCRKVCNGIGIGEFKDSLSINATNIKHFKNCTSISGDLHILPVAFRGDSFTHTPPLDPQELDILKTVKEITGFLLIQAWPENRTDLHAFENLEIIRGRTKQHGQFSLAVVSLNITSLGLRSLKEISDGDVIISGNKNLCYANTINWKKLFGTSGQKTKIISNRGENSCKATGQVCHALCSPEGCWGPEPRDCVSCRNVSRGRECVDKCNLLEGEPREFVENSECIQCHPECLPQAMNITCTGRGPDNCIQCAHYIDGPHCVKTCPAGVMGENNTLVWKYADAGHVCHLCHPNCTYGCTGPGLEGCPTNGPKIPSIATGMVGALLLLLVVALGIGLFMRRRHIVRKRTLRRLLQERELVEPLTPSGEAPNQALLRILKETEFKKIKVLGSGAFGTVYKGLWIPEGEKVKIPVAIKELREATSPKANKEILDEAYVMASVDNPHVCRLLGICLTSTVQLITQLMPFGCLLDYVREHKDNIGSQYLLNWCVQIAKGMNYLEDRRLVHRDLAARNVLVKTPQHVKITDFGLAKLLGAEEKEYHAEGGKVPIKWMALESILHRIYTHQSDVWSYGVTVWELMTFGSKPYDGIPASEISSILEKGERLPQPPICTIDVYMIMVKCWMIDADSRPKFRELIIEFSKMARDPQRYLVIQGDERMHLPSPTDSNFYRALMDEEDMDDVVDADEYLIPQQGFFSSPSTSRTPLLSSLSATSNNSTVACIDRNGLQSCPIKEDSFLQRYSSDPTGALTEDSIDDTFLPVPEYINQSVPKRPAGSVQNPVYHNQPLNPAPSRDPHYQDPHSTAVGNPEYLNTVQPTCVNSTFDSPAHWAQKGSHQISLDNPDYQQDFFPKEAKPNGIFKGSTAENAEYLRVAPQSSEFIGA
Sequence of ErbB4 (Q15303 26-1308, species assumed): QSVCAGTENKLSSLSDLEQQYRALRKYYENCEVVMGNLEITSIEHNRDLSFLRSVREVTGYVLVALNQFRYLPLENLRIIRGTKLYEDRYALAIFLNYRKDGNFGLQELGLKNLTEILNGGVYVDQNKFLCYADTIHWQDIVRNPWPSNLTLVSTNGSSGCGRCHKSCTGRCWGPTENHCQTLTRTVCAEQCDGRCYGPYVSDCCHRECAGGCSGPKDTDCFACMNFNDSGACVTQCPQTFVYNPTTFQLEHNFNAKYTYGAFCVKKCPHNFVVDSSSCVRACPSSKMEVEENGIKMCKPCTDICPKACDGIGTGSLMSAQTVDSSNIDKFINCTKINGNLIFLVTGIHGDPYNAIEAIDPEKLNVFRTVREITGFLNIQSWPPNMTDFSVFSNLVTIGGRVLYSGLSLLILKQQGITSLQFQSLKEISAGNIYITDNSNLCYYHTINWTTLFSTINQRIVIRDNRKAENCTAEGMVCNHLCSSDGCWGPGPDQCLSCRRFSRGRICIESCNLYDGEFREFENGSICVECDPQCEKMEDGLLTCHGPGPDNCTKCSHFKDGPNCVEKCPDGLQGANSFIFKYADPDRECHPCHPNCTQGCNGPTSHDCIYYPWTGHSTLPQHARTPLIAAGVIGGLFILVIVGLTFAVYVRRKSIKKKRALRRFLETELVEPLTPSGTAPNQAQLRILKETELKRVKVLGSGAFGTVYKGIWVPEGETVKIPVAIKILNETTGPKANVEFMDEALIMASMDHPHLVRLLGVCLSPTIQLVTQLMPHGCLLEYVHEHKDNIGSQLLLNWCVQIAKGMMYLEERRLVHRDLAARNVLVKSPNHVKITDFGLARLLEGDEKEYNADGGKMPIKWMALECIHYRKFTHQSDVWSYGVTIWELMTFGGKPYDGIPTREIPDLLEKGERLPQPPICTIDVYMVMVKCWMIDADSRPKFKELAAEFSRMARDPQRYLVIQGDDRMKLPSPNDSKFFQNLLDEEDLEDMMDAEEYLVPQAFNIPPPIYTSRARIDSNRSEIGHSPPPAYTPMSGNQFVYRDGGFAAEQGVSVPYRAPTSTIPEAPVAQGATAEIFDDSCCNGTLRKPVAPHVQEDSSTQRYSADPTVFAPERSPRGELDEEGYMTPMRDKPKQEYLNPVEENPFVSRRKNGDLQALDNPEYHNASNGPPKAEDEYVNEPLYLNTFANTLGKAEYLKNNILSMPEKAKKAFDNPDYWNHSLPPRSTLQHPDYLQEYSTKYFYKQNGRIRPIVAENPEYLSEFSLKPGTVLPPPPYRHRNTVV

SMILES	CYP3A4 inhibitor potency compared with lapatinib (CYP3A4 [1])	CYP3A4 inhibitor potency after preincubation with the test compound, compared with lapatinib (CYP3A4 [1])	inhibition of ErbB2 or EGFR, potency compared with lapatinib (human ErbB2 [2])	Ratio IC50:TD*** (CYP3A4 [5])	also measured
CS(=O)(=O)CCN(Cc1ccc(-c2ccc3ncnc(Nc4ccc(OCc5cccc(F)c5)c(Cl)c4)c3c2)o1)OC(N)=O [Compound 3]	less potent	less potent			
CN(C)C(=O)ON(CCS(C)(=O)=O)Cc1ccc(-c2ccc3ncnc(Nc4ccc(OCc5cccc(F)c5)c(Cl)c4)c3c2)o1 [Compound 4]	less potent	less potent			
CS(=O)(=O)CCN(CC(=O)O)Cc1ccc(-c2ccc3ncnc(Nc4ccc(OCc5cccc(F)c5)c(Cl)c4)c3c2)o1 [Compound 6]	less potent	less potent	better potency than lapatinib	+++	ErbB2 inhibition potency compared with lapatinib (human ErbB2 [3]): better potency than lapatinib; EGFR inhibition potency compared with lapatinib (EGFR [4]): better potency than lapatinib
CS(=O)(=O)CCN(Cc1ccc(-c2ccc3ncnc(Nc4ccc(OCc5cccc(F)c5)c(Cl)c4)c3c2)o1)S(C)(=O)=O [Compound 7]	less potent	less potent	better potency than lapatinib	++	BT-474 IC50 compared with lapatinib (BT-474 cells [6]): lower than those observed for lapatinib; NCI-N87 IC50 compared with lapatinib (NCI-N87 cells): lower than those observed for lapatinib
CS(=O)(=O)CCN(O)Cc1ccc(-c2ccc3ncnc(Nc4ccc(OCc5cccc(F)c5)c(Cl)c4)c3c2)o1 [Compound 2]					IC50 (ErbB4): 32 nM; IC50 (Syk): > 10000 nM; IC50 (EGFR [7]): 72 nM
CS(=O)(=O)CCN(Cc1ccc(-c2ccc3ncnc(Nc4ccc(OCc5cccc(F)c5)c(Cl)c4)c3c2)o1)C1COC1 [Compound 9]		less potent	better potency than lapatinib	+++	BT-474 IC50 compared with lapatinib (BT-474 cells [6]): lower than those observed for lapatinib; NCI-N87 IC50 compared with lapatinib (NCI-N87 cells): lower than those observed for lapatinib; BT-474 IC50 compared with lapatinib (BT-474 cells [8]): lower IC50 than lapatinib
CS(=O)(=O)CCN(Cc1ccc(-c2ccc3ncnc(Nc4ccc(OCc5cccc(F)c5)c(Cl)c4)c3c2)o1)C1CCC1 [Compound 10]	less potent	less potent	better potency than lapatinib	+	time dependent shift of CYP3A4 inhibition compared with lapatinib (CYP3A4 [1]): possible exception
CC(=O)N(CCS(C)(=O)=O)Cc1ccc(-c2ccc3ncnc(Nc4ccc(OCc5cccc(F)c5)c(Cl)c4)c3c2)o1 [Compound 8]		less potent	better potency than lapatinib		
COC(=O)ON(CCS(C)(=O)=O)Cc1ccc(-c2ccc3ncnc(Nc4ccc(OCc5cccc(F)c5)c(Cl)c4)c3c2)o1 [Compound 5]			better potency than lapatinib	++	
